Laboratory results: patent US7759345B2, “Antitumoral derivatives of ET-743” (priority 2001, dated 2010)

Columns and labels:
IGROV-ET = assay: Inhibition of cells growth by colorimetric assay (SRB), IGROV-ET; format: cell-based; conditions: IGROV-ET, SRB, 48 hours exposure
Protocol: (§1) 2°.—Inhibition of Cells Growth by Colorimetric Assay.
(§2) A colorimetric type of assay, using sulforhodamine B (SRB) reaction has been adapted for a quantitative measurement of cell growth and viability [following the technique described by Philip Skehan, et al. (1990), New colorimetric cytotoxicity assay for anticancer drug screening, J. Natl. Cancer Inst., 82:1107-1112]
(§3) This form of the assay employs 96 well cell culture microplates of 9 mm diameter (Faircloth, 1988; Mosmann, 1983). Most of the cell lines are obtained from American Type Culture Collection (ATCC) derived from different human cancer types.
(§4) Cells are maintained in RPMI 1640 10% FBS, supplemented with 0.1 g/l penicillin and 0.1 g/l streptomycin sulfate and then incubated at 37° C., 5% CO2 and 98% humidity. For the experiments, cells were harvested from subconfluent cultures using trypsin and resuspended in fresh medium before plating.
(§5) Cells are seeded in 96 well microtiter plates, at 5×10^3 cells per well in aliquots of 195 μl medium, and they are allowed to attach to the plate surface by growing in drug free medium for 18 hours. Afterward, samples are added in aliquots of 5 μl in a ranging from 10 to 10^−8 μg/ml, dissolved in DMSO/EtOH/PBS (0.5:0.5:99). After 48 hours exposure, the antitumor effect are measured by the SRB methodology: cells are fixed by adding 50 μl of cold 50% (wt/vol) trichloroacetic acid (TCA) and incubating for 60 minutes at 4° C. Plates are washed with deionized water and dried. One hundred μl of SRB solution (0.4% wt/vol in 1% acetic acid) is added to each microtiter well and incubated for 10 minutes at room temperature. Unbound SRB is removed by washing with 1% acetic acid. Plates are air dried and bound stain is solubilized with Tris buffer. Optical densities are read on a automated spectrophotometric plate reader at a single wavelength of 490 nm.
(§6) The values for mean+/−SD of data from triplicate wells are calculated. Some parameters for cellular responses can be calculated: GI=growth inhibition, TGI=total growth inhibition (cytostatic effect) and LC=cell killing (cytotoxic effect).
(§7) Obtained results may predict the usefulness of a certain drug as a potential cancer treatment. For this technique, compounds which show GI50 values smaller than 10 μg/ml are selected to continue with further studies. GI50's data allow to predict that not only could a drug be cystostatic, but also it could have a potential in terms of tumor reduction.

K-562 = assay: Inhibition of cells growth by colorimetric assay (SRB), K-562; format: cell-based; conditions: K-562, SRB, 48 hours exposure
Protocol: as §1, §2, §3, §4, §5, §6, §7

SK-MEL-28 = assay: Inhibition of cells growth by colorimetric assay (SRB), SK-MEL-28; format: cell-based; conditions: MEL-28, SRB, 48 hours exposure
Method in brief: (§8)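 Growth inhibition is measured by sulforhodamine B staining of TCA-fixed cells after 48 h of compound exposure across 10 to 10^−8 μg/ml. Cells are seeded at 5×10^3 per well and grown drug-free for 18 h beforehand; absorbance at 490 nm yields GI, TGI and LC values.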

PANC-1 = assay: Inhibition of cells growth by colorimetric assay (SRB), PANC-1; format: cell-based; conditions: PANC-1, SRB, 48 hours exposure
Protocol: as §1, §2, §3, §4, §5, §6, §7

SK-OV-3 = assay: Inhibition of cells growth by colorimetric assay (SRB), SK-OV-3; format: cell-based; conditions: SK-OV3, SRB, 48 hours exposure
Protocol: as §1, §2, §3, §4, §5, §6, §7

HT-29 = assay: Inhibition of cells growth by colorimetric assay (SRB), HT-29; format: cell-based; conditions: HT-29, SRB, 48 hours exposure
Method in brief: as §8

HMEC1 = assay: Inhibition of cells growth by colorimetric assay (SRB), HMEC1; format: cell-based; conditions: HMEC-1, SRB, 48 hours exposure
Protocol: as §1, §2, §3, §4, §5, §6, §7

LNCaP = assay: Inhibition of cells growth by colorimetric assay (SRB), LNCaP; format: cell-based; conditions: LNCAP, SRB, 48 hours exposure
Protocol: as §1, §2, §3, §4, §5, §6, §7

LoVo-Dox = assay: Inhibition of cells growth by colorimetric assay (SRB), LoVo-Dox; format: cell-based; conditions: LOVO-DOX, SRB, 48 hours exposure
Protocol: as §1, §2, §3, §4, §5, §6, §7

IGROV-1 = assay: Inhibition of cells growth by colorimetric assay (SRB), IGROV-1; format: cell-based; conditions: IGROV, SRB, 48 hours exposure
Protocol: as §1, §2, §3, §4, §5, §6, §7

SK-BR-3 = assay: Inhibition of cells growth by colorimetric assay (SRB), SK-BR-3; format: cell-based; conditions: SK-BR3, SRB, 48 hours exposure
Protocol: as §1, §2, §3, §4, §5, §6, §7

A-549 = assay: Inhibition of cells growth by colorimetric assay (SRB), A-549; format: cell-based; conditions: A-549, SRB, 48 hours exposure
Method in brief: as §8

LoVo = assay: Inhibition of cells growth by colorimetric assay (SRB), LoVo; format: cell-based; conditions: LOVO, SRB, 48 hours exposure
Protocol: as §1, §2, §3, §4, §5, §6, §7

DU-145 = assay: Inhibition of cells growth by colorimetric assay (SRB), DU-145; format: cell-based; conditions: DU-145, SRB, 48 hours exposure
Protocol: as §1, §2, §3, §4, §5, §6, §7

Source text for Heart: (§9) Toxicity was asssessed by the methods reported in Toxicology in Vitro, 15 (2001) 571-577, J. Luber Narod et al.: “Evaluation of the use of in vitro methodolodies as tools for screening new compounds for potential in vivo toxicity”.
Source text for Kidney: as §9
Source text for Liver: as §9
Source text for Skeletal: as §9

## COc1cc2c(cc1OC(=O)Cc1cc(=O)oc3cc(N(C)C)ccc13)CCN[C@]21CS[C@@H]2c3c(OC(C)=O)c(C)c4c(c3[C@H](COC1=O)N1C2[C@H]2c3c(cc(C)c(OC)c3OC(=O)Cc3cc(=O)oc5cc(N(C)C)ccc35)C[C@@H]([C@@H]1O)N2C)OCO4 (stereo partly shown) [Compound 78]
IGROV-ET
  IGROV-ET TGI: 7.42E-07
IGROV-ET; read-out: IGROV-ET GI50
  GI50: 114 nM
K-562
  K-562 TGI: 2.56E-09
K-562; read-out: K-562 GI50
  GI50: 1.24 nM
K-562; read-out: K-562 LC50
  LC50 (50% cell killing): 7.5 nM
SK-MEL-28
  MEL-28 TGI: 4.48E-09
SK-MEL-28; read-out: MEL-28 GI50
  GI50: 2.15 nM
SK-MEL-28; read-out: MEL-28 LC50
  CC50: 16.9 nM
PANC-1
  PANC-1 TGI: 3.24E-08
PANC-1; read-out: PANC-1 GI50
  GI50: 5.42 nM
PANC-1; read-out: PANC-1 LC50
  LC50 (concentration for 50% net cell kill): 4.9 µM
SK-OV-3
  SK-OV3 TGI: 6.27E-08
SK-OV-3; read-out: SK-OV3 GI50
  GI50: 3.79 nM
HT-29
  HT-29 TGI: 1.10E-07
HT-29; read-out: HT-29 GI50
  GI50: 17.1 nM
Kidney
  Toxicity Data Kidney: 2.59E-07
Liver
  Toxicity Data Liver: 5.88E-08
HMEC1
  HMEC-1 TGI: 2.35E-07
HMEC1; read-out: HMEC-1 GI50
  GI50: 28.3 nM
Heart
  Toxicity Data Heart: 8.19E-07
LNCaP
  LNCAP TGI: 4.05E-09
LNCaP; read-out: LNCAP GI50
  GI50: 2.74 nM
LNCaP; read-out: LNCAP LC50
  CC50: 5.99 nM
Skeletal
  Toxicity Data Skeletal: 1.96E-08
LoVo-Dox
  LOVO-DOX TGI: 8.77E-07
LoVo-Dox; read-out: LOVO-DOX GI50
  GI50: 88.5 nM
IGROV-1
  IGROV TGI: 6.27E-09
IGROV-1; read-out: IGROV GI50
  GI50: 2.38 nM
IGROV-1; read-out: IGROV LC50
  CC50: 53.9 nM
SK-BR-3
  SK-BR3 TGI: 1.70E-08
SK-BR-3; read-out: SK-BR3 GI50
  GI50: 4.31 nM
SK-BR-3; read-out: SK-BR3 LC50
  CC50: 63.3 nM
A-549
  TGI A-549: 1.99E-08
A-549; read-out: GI50 A-549
  GI50: 9.59 nM
A-549; read-out: A-549 LC50
  LC50 (concentration for 50% cell killing): 41.1 nM
LoVo
  LOVO TGI: 2.83E-08
LoVo; read-out: LOVO GI50
  GI50: 10.7 nM
LoVo; read-out: LOVO LC50
  LC50 (concentration for 50% cell killing): 74.3 nM
DU-145
  DU-145 TGI: 8.52E-09
DU-145; read-out: DU-145 GI50
  GI50: 3.21 nM
